One may read the IC50 as the point on the concentration scale where inhibition reaches its midpoint. A word on the CC50: it is the concentration at which the toxic effect on the cells reaches its halfway point.

The test system of data set [1] is SARS-CoV-2. The data set can be described thus: Antiviral activity against SARS-CoV-2 NRC-03-nhCoV infected in african green monkey Vero E6 cells assessed as inhibition of virus-induced cytopathic effect measured after 72 hrs by crystal violet staining based assay. Type of data set: functional, organism-based. The settings on record: Severe acute respiratory syndrome coronavirus 2, NRC-03-nhCoV, Vero C1008, 72 h. (Damage to the host cells serves as the signal in cytopathic effect assays.)

Data set [2] can be described thus: Cytotoxicity against African green monkey Vero E6 cells measured after 72 hrs by MTT assay. Particulars: chlorocebus sabaeus. Type of data set: toxicity, cell-based, Vero C1008. On the technique in general: Tetrazolium dyes change colour on reduction, which living cells bring about.
Data set [3] can be described thus: Selectivity index, ratio of CC50 for african green monkey Vero E6 cells to IC50 for antiviral activity against SARS-CoV-2 NRC-03-nhCoV infected in african green monkey Vero E6 cells. Type of data set: toxicity, Vero C1008. The settings on record: read-out: Ratio CC50/IC50.
Data set [4] has as its target Replicase polyprotein 1ab (Severe acute respiratory syndrome coronavirus 2, UniProt P0DTD1). Nature of the data set: Inhibition of recombinant SARS-CoV-2 main protease expressed in Escherichia coli BL21 using Dabcyl-EDANS and Boc-Abu-Tle-Leu-Gln-AMC as substrate.

Regarding `Cn1c(=O)c2c(nc3n2CC=C(O)N3c2ccc(S(N)(=O)=O)cc2)n(C)c1=O`, the IC50 in data set [1] was 16 µM. This compound gave a CC50 at 72 h in data set [2] of 2040 µM. The selectivity ratio in data set [3] was determined as 127.

As for `CCC(CC)COC(=O)[C@H](C)N[P@](=O)(OC[C@H]1O[C@@](C#N)(c2ccc3c(N)ncnn23)[C@H](O)[C@@H]1O)Oc1ccccc1`, the IC50 in data set [1] is 10.1 µM. This compound displayed a CC50 at 72 h in data set [2] of 608 µM.

For the compound `Cn1c(=O)c2c(nc3n(CC#Cc4ccc(Cl)c(Cl)c4)ccn23)n(C)c1=O`, the IC50 in data set [4] came out at 4.7 µM.
